Experiments:
[1] = xn = mol fraction of the nth substance listed; details: 102 kPa, Liquid, Vibrating tube method
[2] = refractive index (Na D-line) (dimensionless); xn = mol fraction of the nth substance listed; details: 102 kPa, Liquid, Standard Abbe refractometry

C[Si]1(CCC(F)(F)F)O[Si](C)(CCC(F)(F)F)O[Si](C)(CCC(F)(F)F)O1 (stereo not given) + CCc1ccccc1
Details	mass density, 308.15 K [kg/m3]	mass density, 313.15 K [kg/m3]	mass density, 318.15 K [kg/m3]	mass density, 323.15 K [kg/m3]	refractive index, 308.15 K	refractive index, 313.15 K	refractive index, 318.15 K	refractive index, 323.15 K
[1], x1 = 0.05	905.01	900.4	895.69	890.85	–	–	–	–
[1], x1 = 0.1	947.97	943.16	938.39	933.5	–	–	–	–
[1], x1 = 0.15	984.47	979.55	974.46	969.52	–	–	–	–
[1], x1 = 0.1967	1013.95	1008.92	1003.57	998.43	–	–	–	–
[1], x1 = 0.25	1043.11	1037.94	1032.55	1027.19	–	–	–	–
[1], x1 = 0.2998	1066.87	1061.66	1056.21	1050.74	–	–	–	–
[1], x1 = 0.35	1088.17	1082.82	1077.22	1071.74	–	–	–	–
[1], x1 = 0.377	1098.7	1093.23	1087.75	1082.06	–	–	–	–
[1], x1 = 0.4437	1121.97	1116.36	1110.93	1104.98	–	–	–	–
[1], x1 = 0.5001	1139.32	1133.58	1127.97	1121.88	–	–	–	–
[1], x1 = 0.5492	1152.93	1147.02	1141.17	1135.21	–	–	–	–
[1], x1 = 0.5994	1165.69	1159.63	1153.7	1147.6	–	–	–	–
[1], x1 = 0.6499	1177.11	1171.2	1165.14	1158.94	–	–	–	–
[1], x1 = 0.6997	1187.73	1181.59	1175.49	1169.24	–	–	–	–
[1], x1 = 0.7502	1197.39	1191.42	1185.03	1178.51	–	–	–	–
[1], x1 = 0.7999	1206.57	1200.31	1193.75	1187.44	–	–	–	–
[1], x1 = 0.8498	1214.84	1208.54	1202.09	1195.57	–	–	–	–
[1], x1 = 0.9002	1222.62	1216.17	1209.67	1203.21	–	–	–	–
[1], x1 = 0.9498	1229.79	1223.31	1216.79	1210.24	–	–	–	–
[1], x1 = 1	1236.63	1230.05	1223.55	1216.99	–	–	–	–
[2], x1 = 0.05	–	–	–	–	1.46829	1.46563	1.46295	1.46034
[2], x1 = 0.1	–	–	–	–	1.4527	1.45013	1.44755	1.445
[2], x1 = 0.15	–	–	–	–	1.43984	1.43731	1.43479	1.43233
[2], x1 = 0.1967	–	–	–	–	1.42972	1.42722	1.42478	1.42233
[2], x1 = 0.25	–	–	–	–	1.41987	1.41742	1.41503	1.41266
[2], x1 = 0.2998	–	–	–	–	1.41202	1.40962	1.40725	1.40493
[2], x1 = 0.35	–	–	–	–	1.40515	1.40278	1.40047	1.39817
[2], x1 = 0.377	–	–	–	–	1.40179	1.39946	1.39713	1.39485
[2], x1 = 0.4437	–	–	–	–	1.39447	1.39219	1.38991	1.38768
[2], x1 = 0.5001	–	–	–	–	1.38911	1.38686	1.38464	1.38243
[2], x1 = 0.5492	–	–	–	–	1.38496	1.38275	1.38053	1.37836
[2], x1 = 0.5994	–	–	–	–	1.3811	1.37891	1.37672	1.37458
[2], x1 = 0.6499	–	–	–	–	1.3776	1.37545	1.37326	1.37112
[2], x1 = 0.6997	–	–	–	–	1.37445	1.37234	1.37017	1.36807
[2], x1 = 0.7502	–	–	–	–	1.37152	1.36941	1.36729	1.36521
[2], x1 = 0.7999	–	–	–	–	1.36888	1.36677	1.36471	1.36262
[2], x1 = 0.8498	–	–	–	–	1.36642	1.36437	1.36228	1.36025
[2], x1 = 0.9002	–	–	–	–	1.36413	1.3621	1.36007	1.35801
[2], x1 = 0.9498	–	–	–	–	1.36206	1.36004	1.35799	1.356
[2], x1 = 1	–	–	–	–	1.36011	1.35808	1.35608	1.35407

C[Si]1(CCC(F)(F)F)O[Si](C)(CCC(F)(F)F)O[Si](C)(CCC(F)(F)F)O1 (stereo not given) + COc1ccccc1
Details	mass density, 308.15 K [kg/m3]	mass density, 313.15 K [kg/m3]	mass density, 318.15 K [kg/m3]	mass density, 323.15 K [kg/m3]	refractive index, 308.15 K	refractive index, 313.15 K	refractive index, 318.15 K	refractive index, 323.15 K
[1], x1 = 0.0502	1018.9	1013.91	1008.94	1003.9	–	–	–	–
[1], x1 = 0.0999	1050.1	1044.97	1039.74	1034.53	–	–	–	–
[1], x1 = 0.15	1076.1	1070.73	1065.35	1059.95	–	–	–	–
[1], x1 = 0.1999	1097.79	1092.31	1086.77	1081.24	–	–	–	–
[1], x1 = 0.2501	1116.38	1110.76	1105.11	1099.47	–	–	–	–
[1], x1 = 0.2998	1132.25	1126.52	1120.84	1115.01	–	–	–	–
[1], x1 = 0.3498	1146.05	1140.29	1134.47	1128.62	–	–	–	–
[1], x1 = 0.4001	1158.32	1152.45	1146.5	1140.45	–	–	–	–
[1], x1 = 0.4497	1169.15	1163.11	1156.93	1151	–	–	–	–
[1], x1 = 0.4997	1178.65	1172.56	1166.57	1160.21	–	–	–	–
[1], x1 = 0.5453	1186.4	1180.31	1174.14	1168.04	–	–	–	–
[1], x1 = 0.6001	1194.94	1188.71	1182.53	1176.37	–	–	–	–
[1], x1 = 0.6498	1201.9	1195.72	1189.43	1183.1	–	–	–	–
[1], x1 = 0.6995	1208.15	1201.84	1195.66	1189.14	–	–	–	–
[1], x1 = 0.7502	1214.01	1207.72	1201.45	1194.99	–	–	–	–
[1], x1 = 0.8	1219.27	1212.9	1206.52	1200.09	–	–	–	–
[1], x1 = 0.8491	1223.97	1217.59	1211.19	1204.79	–	–	–	–
[1], x1 = 0.8997	1228.56	1222.13	1215.62	1209.23	–	–	–	–
[1], x1 = 0.9497	1232.67	1226.23	1219.73	1213.21	–	–	–	–
[1], x1 = 1	1236.63	1230.05	1223.55	1216.99	–	–	–	–
[2], x1 = 0.0502	–	–	–	–	1.48464	1.48208	1.47955	1.47695
[2], x1 = 0.0999	–	–	–	–	1.4658	1.4633	1.46089	1.45834
[2], x1 = 0.15	–	–	–	–	1.45042	1.44796	1.44565	1.44317
[2], x1 = 0.1999	–	–	–	–	1.43774	1.43532	1.43308	1.43068
[2], x1 = 0.2501	–	–	–	–	1.42699	1.42468	1.42242	1.42006
[2], x1 = 0.2998	–	–	–	–	1.41796	1.41563	1.41345	1.41113
[2], x1 = 0.3498	–	–	–	–	1.41011	1.40783	1.40566	1.40338
[2], x1 = 0.4001	–	–	–	–	1.40327	1.401	1.39886	1.39659
[2], x1 = 0.4497	–	–	–	–	1.39729	1.39509	1.39295	1.39069
[2], x1 = 0.4997	–	–	–	–	1.39198	1.3898	1.38766	1.38549
[2], x1 = 0.5453	–	–	–	–	1.38765	1.38551	1.38335	1.3812
[2], x1 = 0.6001	–	–	–	–	1.38297	1.38081	1.37871	1.37655
[2], x1 = 0.6498	–	–	–	–	1.37914	1.37703	1.37495	1.37279
[2], x1 = 0.6995	–	–	–	–	1.3757	1.37358	1.37151	1.36941
[2], x1 = 0.7502	–	–	–	–	1.3725	1.37039	1.36832	1.36625
[2], x1 = 0.8	–	–	–	–	1.3696	1.36751	1.36547	1.36338
[2], x1 = 0.8491	–	–	–	–	1.36697	1.36492	1.36288	1.36086
[2], x1 = 0.8997	–	–	–	–	1.3645	1.36245	1.36042	1.35837
[2], x1 = 0.9497	–	–	–	–	1.36221	1.36019	1.35818	1.35616
[2], x1 = 1	–	–	–	–	1.36011	1.35808	1.35609	1.35407

Reference: the NIST ThermoML archive (doi:10.1016/j.jct.2015.12.025)
